Experimental data: US20180037601A1, “Nucleoside-Based Anti-Bacterial and Anti-Protozoan Drugs” (UTI Limited Partnership, priority 2015, published 2018)
Several values for one entry are separate records, joined by “and”; a condition that tells them apart may be missing. Equal values may be shown once. Read-outs that look alike come from different tables or passages of the source. Values belong to the compound of their own block, whether it stands above or below them.

Tests used:
[1] = system: Leishmania donovani (MHOM/SD/62/IS-CL2D) axenic amastigotes; assay: In vitro growth inhibition assay of L. donovani axenic amastigotes, CellTiter; assay type: cell-based; conditions: for IC50: Leishmania donovani, axenic amastigotes, average of duplicate determinations, read-out: IC50 against L. donovani
Text: (§1) Each of the nucleoside analogues was examined for in vitro activity against four parasites, T.b. rhodesiene, T. cruzi, L. donovoni and P. falciparum, as well as for cytotoxicity toward the L6 rat myoblast cell line.
(§2) All IC50 values are expressed as micromolar. Cytotoxicity (L6 rat myoblast cells); average of duplicate determinations. Trypanosoma brucei rhodesiense (STIB900); average of duplicate determinations. Selectivity index for T.b. rhodesiense (SIr); expressed as the ratio [IC50 (L6/IC50 (T.b. rhodesiense)]. Plasmodium falciparum ([…], resistant to chloroquine); average of duplicate determinations. Selectivity index for P. falciparum (SIp), expressed as the ratio [IC50 (L6/IC50 (P. falciparum)]. Leishmania donovani (MHOM/SD/62/IS-CL2D) axenic amastigotes; average of duplicate determinations. Selectivity index for L. donovani (SIL), expressed as the ratio [IC50 (L6/IC50 (L. donovani)]. Trypanosoma cruzi; average of duplicate determinations. Selectivity index for T. cruzi (SIC), expressed as the ratio [IC50(L6/IC50(T. cruzi)]. IA. Nucleoside analogs designed to be activated via Pathway I. IB. Nucleoside analogs designed to be activated via Pathway II. Phth=phthalimido.
In vitro growth inhibition assay of L. Donovani. Axenic amastigotes of L. Donovaniwere adapted from promastigotes and grown in the amastigote medium previously described.^60 The tetrazolium dye-based CellTiter reagent (Promega, Madison, Wis.) was used to assess parasite growth.^61

Trypanosoma cruzi = assay: In vitro activity against T. cruzi; assay type: cell-based; conditions: for IC50: Trypanosoma cruzi
Text: as §1, §2

T.b. rhodesiense = conditions: literature ref. 30; cited from earlier work
Leishmania donovani [2] = conditions: literature ref. 29; cited from earlier work
Leishmania donovani [3] = conditions: literature ref. 29; cited from earlier work; remark: listed apart in the source
T.b gambiense = conditions: literature ref. 30; cited from earlier work
[4] = system: Plasmodium falciparum (KI), erythrocytic stages; assay: In vitro growth inhibition assay of P. falciparum, [3H]-hypoxanthine incorporation; assay type: cell-based
Text: as §1, §2
In vitro growth inhibition assay of P. falciparum (KI). The determination of IC50 values against erythrocytic stages of P. falciparum was carried out in duplicate using the [^3H]-hypoxanthine incorporation assay.^58,59

[5] = system: Trypanosoma brucei rhodesiense (STIB900); assay: In vitro growth inhibition assay of T.b. rhodesiense (STIB900), Alamar blue; assay type: cell-based
Text: as §1, §2
Preparation of compounds for assay. Compounds were dissolved in 100% dimethyl sulfoxide (DMSO) and diluted in the culture medium prior to the in vitro assay. The DMSO concentration never exceeded 1% in the in vitro Alamar Blue assays at the highest drug concentration.
In vitro growth inhibition assay of T.B. rhodesiense (STIB900). IC50 values were determined using the Alamar blue assay and were carried out twice independently and in duplicate as described.^57

L. donovani = conditions: literature ref. 55; cited from earlier work
[6] = In vitro cytotoxicity assay (L6 rat myoblast cells), Alamar blue; assay type: cell-based; conditions: read-out: Cytotoxicity IC50 toward L6 mammalian cell line
Text: as §1, §2
In vitro cytoxicity assay (L6 Rat Myoblast cells). IC50 values were determined using the Alamar blue assay^62 and were carried out twice independently.

[7] = average of duplicate determinations, read-out: IC50 against T. cruzi

SMILES: CC(=O)O[C@@H]1[C@H](OC(C)=O)[C@@H](CN2C(=O)c3ccccc3C2=O)O[C@H]1n1cnc2c(N)nc(Cl)nc21 [Compound 45, 2′,3′-Di-O-acetyl-2-chloro-5′-deoxy-5′-phthalimidoadenosine]
melting point: 256 °C

SMILES: [N-]=[N+]=NC[C@H]1O[C@@H](n2cnc3c(N)nc(Cl)nc32)[C@H](O)[C@@H]1O [Compound 49, 5′-Azido-2-chloro-5′-deoxyadenosine]
melting point: 222 to 223 °C

SMILES: CC(=O)O[C@@H]1[C@H](OC(C)=O)[C@@H](CN=[N+]=[N-])O[C@H]1n1cnc2c(N)nc(Cl)nc21 [Compound 41, 2′,3′-Di-O-Acetyl-5′-azido-2-chloro-5′-deoxyadenosine]
melting point: 75 to 77 °C

SMILES: O=c1[nH]cnc2c([C@@H]3O[C@H](CO)[C@@H](O)[C@H]3O)n[nH]c12 [Formycin B]
Activity against T.b. rhodesiense (T.b. rhodesiense): active
Therapeutic activity in a hamster model (Leishmania donovani [2]): therapeutically active
Inhibition of Leishmania donovani in vitro (Leishmania donovani [3]): inhibits
Activity against T.b gambiense (T.b gambiense): active

SMILES: CSC[C@H]1O[C@@H](n2cnc3c(N(C)N=O)nc(F)nc32)[C@H](O)[C@@H]1O [ACT-88, 5′-Deoxy-2-fluoro-N^6-methyl-5′-methylthio-N^6-nitrosoadenosine]
IC50 ([4]; Plasmodium falciparum, read-out: IC50 against Plasmodium falciparum): 110 nM
Selectivity index for P. falciparum (SIp) ([4]; ratio IC50 (L6)/IC50 (P. falciparum)): 983 and 1254
Activity against Trypanosoma cruzi (in words) (Trypanosoma cruzi): absence
Activity against Trypanosoma brucei (in words) [5]: absence
Activity against L. donovani (in words) [1]: absence

SMILES: CC(=O)O[C@@H]1[C@H](OC(C)=O)[C@@H](CN2C(=O)c3ccccc3C2=O)O[C@H]1n1cnc2c(N)nc(F)nc21 [Compound 44, 2′,3′-Di-O-acetyl-5′-deoxy-2-fluoro-5′-phthalimidoadenosine]
melting point: 237 to 239 °C

SMILES: CC(=O)O[C@@H]1[C@H](OC(C)=O)[C@@H](CI)O[C@H]1n1cnc2c(N)nc(Cl)nc21 [Compound 47, 2′,3′-Di-O-acetyl-2-chloro-5′-deoxy-5′-iodoadenosine]
melting point: 93 °C

SMILES: O=C1N=CN=C2C([C@@H]3O[C@H](CO)[C@@H](O)[C@H]3O)=CN=C12 [9-deaza-inosine]
Activity against T.b. rhodesiense (T.b. rhodesiense): active
Activity against L. donovani in a squirrel monkey in vivo model (L. donovani): activity
Activity against T.b gambiense (T.b gambiense): active

SMILES: CC(=O)O[C@@H]1[C@H](OC(C)=O)[C@@H](CI)O[C@H]1n1cnc2c(N)nc(F)nc21 [Compound 46, 2′,3′-Di-O-acetyl-5′-deoxy-2-fluoro-5′-iodoadenosine]
melting point: 181 to 182 °C

SMILES: CSC[C@H]1O[C@@H](n2cnc3c(N)nc(F)nc32)[C@H](O)[C@@H]1O [ACT-51, 5′-Deoxy-2-fluoro-5′-(methylthio)adenosine]
Activity against P. falciparum (in words) [4]: strong activity
IC50 (Trypanosoma cruzi; [7]): 2600 nM
Activity against Trypanosoma brucei (in words) [5]: strong activity
Activity against L. donovani (in words) [1]: strong activity
IC50 [6]: 584 nM

SMILES: Nc1nc(Cl)c2ccn(C3O[C@H](CO)[C@@H](O)[C@H]3O)c2n1 (stereo partly drawn) [ACT-91, 2-Amino-6-chloro-7-deaza-9-(D-ribofuranosyl)purine]
melting point: 172 to 173 °C
IC50 (Trypanosoma cruzi; [7]): 3400 nM
Selectivity index for T. cruzi (SIC) (Trypanosoma cruzi; ratio IC50 (L6)/IC50 (T. cruzi)): 48
IC50 ([5]; Trypanosoma brucei, STIB900, average of duplicate determinations, read-out: IC50 against T.b. rhodesiense): 130 nM
IC50 [1]: 60 nM
Selectivity index for L. donovani (SIL) ([1]; ratio IC50 (L6)/IC50 (L. donovani)): 2720 and 2717

Further lines, results first:

melting point: 184 to 185 °C
SMILES: CSC[C@H]1O[C@@H](n2cnc3c(N)nc(C#N)nc32)[C@H](O)[C@@H]1O [Compound 71, 2-Cyano-5′-deoxy-5′-(methylthio)adenosine]

IC50 [1]: 122 nM
SMILES: CCCCCCCCCCCCCCCCOP(=O)([O-])OCC[N+](C)(C)C [miltefosine, reference compound]

IC50 (Trypanosoma cruzi; standard drug listed in the table, read-out: IC50 against T. cruzi (standard)): 427 nM
SMILES: O=C(Cn1ccnc1[N+](=O)[O-])NCc1ccccc1 [benznidazole, reference compound]

melting point: 168 to 169 °C
SMILES: CSC[C@H]1O[C@@H](n2cnc3c(N)nc(NN)nc32)[C@H](O)[C@@H]1O [Compound 58, 5′-Deoxy-2-hydrazino-5′-(methylthio)adenosine]

melting point: 193 to 194 °C
SMILES: CNc1nc(C#N)nc2c1ncn2[C@@H]1O[C@H](C)[C@@H](O)[C@H]1O [Compound 72, 2-Cyano-5′-deoxy-N^6-methyladenosine]

melting point: 193 to 194 °C
SMILES: CNc1nc(C#N)nc2c1ncn2[C@@H]1O[C@H](CSC)[C@@H](O)[C@H]1O [Compound 73, 2-Cyano-5′-deoxy-N^6-methyl-5′-(methylthio)adenosine]
